# Assay results published in patent US20250163104A1, “MACROCYCLIC IMMUNOMODULATORS” (priority 2021, published 2025).
# Where a SMILES comes first, the peptide text is derived from it. Bridges are numbered along the chain shown (N, C = ends). [ ]: non-standard residue; d: D form. Phe(4-NO2) = N[C@@H](Cc1ccc([N+](=O)[O-])cc1)C(=O)O; Phe(4-CF3) = N[C@@H](Cc1ccc(C(F)(F)F)cc1)C(=O)O; Phe(4-tBu) = CC(C)(C)c1ccc(C[C@H](N)C(=O)O)cc1; Bip = N[C@@H](Cc1ccc(-c2ccccc2)cc1)C(=O)O; Phe(3-Cl) = N[C@@H](Cc1cccc(Cl)c1)C(=O)O; Phe(4-NH2) = Nc1ccc(C[C@H](N)C(=O)O)cc1; Phe(3-Me) = Cc1cccc(C[C@H](N)C(=O)O)c1; Phe(4-F) = N[C@@H](Cc1ccc(F)cc1)C(=O)O; Phe(4-Me) = Cc1ccc(C[C@H](N)C(=O)O)cc1; Cha = N[C@@H](CC1CCCCC1)C(=O)O; Cit = NC(=O)NCCC[C@H](N)C(=O)O; Orn = NCCC[C@H](N)C(=O)O; Dab = NCC[C@H](N)C(=O)O; Dap = NC[C@H](N)C(=O)O
# Target: T1, human PD-1 / PD-L1-Ig binding on Jurkat cell line over-expressing human PD-1 (Jurkat-PD-1) (Homo sapiens, UniProt Q15116)
# T1 construct: expressed in transfected cells; host or cells: Jurkat
# Assay: Jurkat-PD-1 Cell Binding High-Content Screening Assay (CBA)
# Assay type: cell-based
# Conditions: Jurkat-PD-1 cells, PE-labeled PD-L1-Ig 20 nM final; read-out: Jurkat HPD1_PDL1 IC50
# How it was run: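 PE-PD-L1-Ig 20 nM final; cells in DMEM/10% FCS; cpd pre-incubation 2 h, 37° C; ligand 1 h; PFA fix + Hoechst 33342; high-content imaging read-out.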
# T1 sequence (Q15116 25-288): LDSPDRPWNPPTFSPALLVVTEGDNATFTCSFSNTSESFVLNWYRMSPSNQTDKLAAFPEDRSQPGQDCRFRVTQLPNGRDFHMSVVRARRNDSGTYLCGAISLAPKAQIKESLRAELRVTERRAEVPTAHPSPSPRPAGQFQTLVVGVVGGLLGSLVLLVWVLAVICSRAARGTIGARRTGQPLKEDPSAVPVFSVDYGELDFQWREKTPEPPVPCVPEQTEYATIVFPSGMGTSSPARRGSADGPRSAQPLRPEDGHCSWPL
row,Structure (SMILES),IC50
1,CC(C)C[C@H]1NC(=O)[C@H](CCCN)NC(=O)[C@H](CCCNC(N)=O)NC(=O)[C@H](Cc2ccc(-c3ccccc3)cc2)NC(=O)[C@H](C(C)C)NC(=O)[C@H](Cc2c[nH]c3ccccc23)NC(=O)[C@H](CC(=O)O)NC(=O)[C@H](Cc2ccc(F)cc2)NC(=O)[C@H](CN)NC(=O)CSC[C@@H](C(=O)N[C@@H](C)C(N)=O)NC(=O)[C@H]([C@@H](C)O)NC(=O)[C@H](C(C)C)NC(=O)[C@H](CC2CCCCC2)NC(=O)[C@H](CCN)NC1=O [Compound 2103] ({CH2CO}-[Dap][Phe(4-F)]DWV[Bip][Cit][Orn][dL][Dab][Cha]VTCA-NH2; thioether N-14),15.9 nM
2,CC(C)C[C@H]1NC(=O)[C@H](CCCN)NC(=O)[C@H](CCCNC(N)=O)NC(=O)[C@H](Cc2ccc(-c3ccccc3)cc2)NC(=O)[C@H](C(C)C)NC(=O)[C@H](Cc2c[nH]c3ccccc23)NC(=O)[C@H](CC(=O)O)NC(=O)[C@H](CCc2ccncc2)NC(=O)[C@H](CN)NC(=O)CSC[C@@H](C(=O)N[C@@H](C)C(N)=O)NC(=O)[C@H]([C@@H](C)O)NC(=O)[C@H](C(C)C)NC(=O)[C@H](CC2CCCCC2)NC(=O)[C@H](CCN)NC1=O [Compound 2104],18.2 nM
3,CC(C)C[C@H]1NC(=O)[C@H](CCCN)NC(=O)[C@H](CCCNC(N)=O)NC(=O)[C@H](Cc2ccc(-c3ccccc3)cc2)NC(=O)[C@H](C(C)C)NC(=O)[C@H](Cc2c[nH]c3ccccc23)NC(=O)[C@H](CC(=O)O)NC(=O)[C@H](Cc2ccc(N)cc2)NC(=O)[C@H](CN)NC(=O)CSC[C@@H](C(=O)N[C@@H](C)C(N)=O)NC(=O)[C@H]([C@@H](C)O)NC(=O)[C@H](C(C)C)NC(=O)[C@H](CC2CCCCC2)NC(=O)[C@H](CCN)NC1=O [Compound 2105] ({CH2CO}-[Dap][Phe(4-NH2)]DWV[Bip][Cit][Orn][dL][Dab][Cha]VTCA-NH2; thioether N-14),6.8 nM
4,CC(C)C[C@H]1NC(=O)[C@H](CCCN)NC(=O)[C@H](CCCNC(N)=O)NC(=O)[C@H](Cc2ccc(-c3ccccc3)cc2)NC(=O)[C@H](C(C)C)NC(=O)[C@H](Cc2c[nH]c3ccccc23)NC(=O)[C@H](CC(=O)O)NC(=O)[C@H](Cc2ccc(C(C)(C)C)cc2)NC(=O)[C@H](CN)NC(=O)CSC[C@@H](C(=O)N[C@@H](C)C(N)=O)NC(=O)[C@H]([C@@H](C)O)NC(=O)[C@H](C(C)C)NC(=O)[C@H](CC2CCCCC2)NC(=O)[C@H](CCN)NC1=O [Compound 2106] ({CH2CO}-[Dap][Phe(4-tBu)]DWV[Bip][Cit][Orn][dL][Dab][Cha]VTCA-NH2; thioether N-14),93.4 nM
5,CC(C)C[C@H]1NC(=O)[C@H](CCCN)NC(=O)[C@H](CCCNC(N)=O)NC(=O)[C@H](Cc2ccc(-c3ccccc3)cc2)NC(=O)[C@H](C(C)C)NC(=O)[C@H](Cc2c[nH]c3ccccc23)NC(=O)[C@H](CC(=O)O)NC(=O)[C@H](Cc2ccc(C(F)(F)F)cc2)NC(=O)[C@H](CN)NC(=O)CSC[C@@H](C(=O)N[C@@H](C)C(N)=O)NC(=O)[C@H]([C@@H](C)O)NC(=O)[C@H](C(C)C)NC(=O)[C@H](CC2CCCCC2)NC(=O)[C@H](CCN)NC1=O [Compound 2107] ({CH2CO}-[Dap][Phe(4-CF3)]DWV[Bip][Cit][Orn][dL][Dab][Cha]VTCA-NH2; thioether N-14),44.7 nM
6,Cc1ccc(C[C@@H]2NC(=O)[C@H](CN)NC(=O)CSC[C@@H](C(=O)N[C@@H](C)C(N)=O)NC(=O)[C@H]([C@@H](C)O)NC(=O)[C@H](C(C)C)NC(=O)[C@H](CC3CCCCC3)NC(=O)[C@H](CCN)NC(=O)[C@@H](CC(C)C)NC(=O)[C@H](CCCN)NC(=O)[C@H](CCCNC(N)=O)NC(=O)[C@H](Cc3ccc(-c4ccccc4)cc3)NC(=O)[C@H](C(C)C)NC(=O)[C@H](Cc3c[nH]c4ccccc34)NC(=O)[C@H](CC(=O)O)NC2=O)cc1 [Compound 2108] ({CH2CO}-[Dap][Phe(4-Me)]DWV[Bip][Cit][Orn][dL][Dab][Cha]VTCA-NH2; thioether N-14),19.9 nM
7,Cc1cccc(C[C@@H]2NC(=O)[C@H](CN)NC(=O)CSC[C@@H](C(=O)N[C@@H](C)C(N)=O)NC(=O)[C@H]([C@@H](C)O)NC(=O)[C@H](C(C)C)NC(=O)[C@H](CC3CCCCC3)NC(=O)[C@H](CCN)NC(=O)[C@@H](CC(C)C)NC(=O)[C@H](CCCN)NC(=O)[C@H](CCCNC(N)=O)NC(=O)[C@H](Cc3ccc(-c4ccccc4)cc3)NC(=O)[C@H](C(C)C)NC(=O)[C@H](Cc3c[nH]c4ccccc34)NC(=O)[C@H](CC(=O)O)NC2=O)c1 [Compound 2109] ({CH2CO}-[Dap][Phe(3-Me)]DWV[Bip][Cit][Orn][dL][Dab][Cha]VTCA-NH2; thioether N-14),38.5 nM
8,CC(C)C[C@H]1NC(=O)[C@H](CCCN)NC(=O)[C@H](CCCNC(N)=O)NC(=O)[C@H](Cc2ccc(-c3ccccc3)cc2)NC(=O)[C@H](C(C)C)NC(=O)[C@H](Cc2c[nH]c3ccccc23)NC(=O)[C@H](CC(=O)O)NC(=O)[C@H](Cc2ccc([N+](=O)[O-])cc2)NC(=O)[C@H](CN)NC(=O)CSC[C@@H](C(=O)N[C@@H](C)C(N)=O)NC(=O)[C@H]([C@@H](C)O)NC(=O)[C@H](C(C)C)NC(=O)[C@H](CC2CCCCC2)NC(=O)[C@H](CCN)NC1=O [Compound 2110] ({CH2CO}-[Dap][Phe(4-NO2)]DWV[Bip][Cit][Orn][dL][Dab][Cha]VTCA-NH2; thioether N-14),18.2 nM
9,CC(C)C[C@H]1NC(=O)[C@H](CCCN)NC(=O)[C@H](CCCNC(N)=O)NC(=O)[C@H](Cc2ccc(-c3ccccc3)cc2)NC(=O)[C@H](C(C)C)NC(=O)[C@H](Cc2c[nH]c3ccccc23)NC(=O)[C@H](CC(=O)O)NC(=O)[C@H](Cc2cccc(Cl)c2)NC(=O)[C@H](CN)NC(=O)CSC[C@@H](C(=O)N[C@@H](C)C(N)=O)NC(=O)[C@H]([C@@H](C)O)NC(=O)[C@H](C(C)C)NC(=O)[C@H](CC2CCCCC2)NC(=O)[C@H](CCN)NC1=O [Compound 2111] ({CH2CO}-[Dap][Phe(3-Cl)]DWV[Bip][Cit][Orn][dL][Dab][Cha]VTCA-NH2; thioether N-14),33 nM
10,COc1ccc(C[C@@H]2NC(=O)[C@H](CN)NC(=O)CSC[C@@H](C(=O)N[C@@H](C)C(N)=O)NC(=O)[C@H]([C@@H](C)O)NC(=O)[C@H](C(C)C)NC(=O)[C@H](CC3CCCCC3)NC(=O)[C@H](CCN)NC(=O)[C@@H](CC(C)C)NC(=O)[C@H](CCCN)NC(=O)[C@H](CCCNC(N)=O)NC(=O)[C@H](Cc3ccc(-c4ccccc4)cc3)NC(=O)[C@H](C(C)C)NC(=O)[C@H](Cc3c[nH]c4ccccc34)NC(=O)[C@H](CC(=O)O)NC2=O)cc1 [Compound 2112],18 nM
11,CC(C)C[C@H]1NC(=O)[C@H](CCCN)NC(=O)[C@H](CCCNC(N)=O)NC(=O)[C@H](Cc2ccc(-c3ccccc3)cc2)NC(=O)[C@H](C(C)C)NC(=O)[C@H](Cc2c[nH]c3ccccc23)NC(=O)[C@H](CC(=O)O)NC(=O)[C@H](Cc2ccc(O)c([N+](=O)[O-])c2)NC(=O)[C@H](CN)NC(=O)CSC[C@@H](C(=O)N[C@@H](C)C(N)=O)NC(=O)[C@H]([C@@H](C)O)NC(=O)[C@H](C(C)C)NC(=O)[C@H](CC2CCCCC2)NC(=O)[C@H](CCN)NC1=O [Compound 2113],14.9 nM
12,CC(C)C[C@H]1NC(=O)[C@H](CCCN)NC(=O)[C@H](CCCNC(N)=O)NC(=O)[C@H](Cc2ccc(-c3ccccc3)cc2)NC(=O)[C@H](C(C)C)NC(=O)[C@H](Cc2c[nH]c3ccccc23)NC(=O)[C@H](CC(=O)O)NC(=O)[C@H](Cc2csc3ccccc23)NC(=O)[C@H](CN)NC(=O)CSC[C@@H](C(=O)N[C@@H](C)C(N)=O)NC(=O)[C@H]([C@@H](C)O)NC(=O)[C@H](C(C)C)NC(=O)[C@H](CC2CCCCC2)NC(=O)[C@H](CCN)NC1=O [Compound 2114],68.9 nM
